# Molecular target: T1, PDE9A2 (Homo sapiens, UniProt O76083)
# T1 construct: purchased Reaction Biology Corporation, Malvern, Pa
# Test: Phosphodiesterase Enzyme Screening Assay, PDE9A2 (Caliper LabChip mobility-shift)
# Type: biochemical
# Details: 10 concentrations, 4.0 μM cGMP substrate, 1 hour at R.T.; read-out: Band (PDE9A2 IC50)
# Description: Compounds of the invention were screened against PDE1A, PDE1B, PDE2A, PDE3A, PDE3B, PDE4A1A, PDE4B1, PDE4D3, PDE5A1, PDE6C, PDE7A, PDE8A1, PDE9A2, PDE10A2 AND PDE11A isoforms of the phosphodiesterase enzyme to determine activity and overall selectivity through comparative analysis. The assay generally consists of testing the compounds of the invention at 10 concentrations. Where 8-methoxy-IBMX and Zaprinast were used as reference inhibitors.
# The phosphodiesterase enzyme isoforms were obtained from a commercial retailer (Reaction Biology Corporation, Malvern, Pa.) for use in the instant screening assay.
# The analysis was completed using the Caliper LabChip 3000 and a 12-sipper LabChip. LabChip assays are separations-based, meaning that the product and substrate are electrophoretically separated, thereby minimizing interferences and yielding the highest data quality available on any screening platform. Z′ factors for both the EZ Reader and LC3000 enzymatic assays are routinely in the 0.8 to 0.9 range. High Z′ values, few false positives, few false negatives and analytical quality reproducibility are the reasons cited for the increasing reliance on the LabChip assays.
# The off-chip incubation mobility-shift phosphodiesterase assay uses a microfluidic chip to measure the conversion of a fluorescent cyclic AMP substrate to a 5′-AMP product, or a cyclic GMP substrate to a 5′-GMP product. The reaction mixture, from a microtiter plate well, is introduced through a capillary sipper onto the chip, where the fluorescent substrate and product are separated by electrophoresis and detected via laser-induced fluorescence. […] The precision of microfluidics allows researchers to detect subtle interactions between drug candidates and therapeutic targets. The technology is able to detect both strong and weak inhibitors with high accuracy, and routinely identifies drug candidates that conventional techniques miss.
# Reactions were carried out in 100 mM HEPES (pH 7.5), 5 mM MgCl2, 1 mM DTT, 0.003% Brij, 4.0 μM cGMP substrate. The reaction was started by addition of cGMP or cAMP and incubated for 1 hour at R.T. The reaction was terminated by the addition of stop buffer containing 100 mM HEPES (pH 7.5), 15 mM EDTA, 0.015% Brij-35, 5% DMSO. Cyclic AMP/GMP substrate and 5′-AMP/5′-GMP product were separated by charge using electrophoretic mobility shift. Product formed was compared to control wells to determine inhibition or enhancement of enzyme activity.
# One or more reference compounds, depending on phosphodiesterase isoform, selected from 8-methoxy-IBMX, Zaprinast, Trequinsin, Pentoxifyline, Rolipram, and Vinpocetine, Dipyridamole, and BRL-50481 were run alongside client samples to ensure data quality. The resulting IC50 is compared against the historical average and must be within 3-fold of this average.
# Data points were averages of quadruplicate wells and error bars represented the SEM for each point. IC50s were determined using GraphPad Prism Version 5.01 and the log (inhibitor) vs. response variable slope curve fit.
# T1 sequence (O76083 1-533 isoform O76083-2): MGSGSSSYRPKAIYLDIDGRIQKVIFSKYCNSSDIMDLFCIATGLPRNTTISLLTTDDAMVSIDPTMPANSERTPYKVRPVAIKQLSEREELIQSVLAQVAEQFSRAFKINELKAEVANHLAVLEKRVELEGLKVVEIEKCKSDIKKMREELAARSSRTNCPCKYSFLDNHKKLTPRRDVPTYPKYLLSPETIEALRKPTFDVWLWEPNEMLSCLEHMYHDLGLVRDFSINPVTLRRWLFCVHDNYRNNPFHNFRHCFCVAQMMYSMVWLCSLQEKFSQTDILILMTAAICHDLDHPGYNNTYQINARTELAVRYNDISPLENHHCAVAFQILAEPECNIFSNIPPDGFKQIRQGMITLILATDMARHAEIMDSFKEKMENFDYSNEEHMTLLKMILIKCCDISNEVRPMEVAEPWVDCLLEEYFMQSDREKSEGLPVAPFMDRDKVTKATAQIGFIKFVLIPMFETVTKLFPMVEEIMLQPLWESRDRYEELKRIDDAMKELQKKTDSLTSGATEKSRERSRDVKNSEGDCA
row,Structure (SMILES),IC50 [nM]
1,"Cc1ccc(Cl)cc1-c1ncc2c(=O)[nH]c([C@@H]3CNC[C@H]3C)nn12 (relative stereo) [(−)-7-(5-chloro-2-methylphenyl)-2-((3,4-trans)-4-methylpyrrolidin-3-yl)imidazo[5,1-f][1,2,4]triazin-4(3H)-one]",1000 to 10000
2,"C[C@@H]1CN(Cc2ccccc2F)C[C@H]1c1nn2c(C3CCOCC3)ncc2c(=O)[nH]1 (single isomer, unassigned) [(+)-2-((3,4-trans)-1-(2-fluorobenzyl)-4-methylpyrrolidin-3-yl)-7-(tetrahydro-2H-pyran-4-yl)imidazo[5,1-f][1,2,4]triazin-4(3H)-one]",< 1000
3,"C[C@@H]1CN(Cc2ccc(F)cc2)C[C@H]1c1nn2c(C3CCOCC3)ncc2c(=O)[nH]1 (single isomer, unassigned) [(+)-2-((3,4-trans)-1-(4-fluorobenzyl)-4-methylpyrrolidin-3-yl)-7-(tetrahydro-2H-pyran-4-yl)imidazo[5,1-f][1,2,4]triazin-4(3H)-one]",< 1000
4,"COc1cccc(CN2C[C@@H](C)[C@H](c3nn4c(C5CCOCC5)ncc4c(=O)[nH]3)C2)n1 (single isomer, unassigned) [(+)-2-((3,4-trans)-1-((6-methoxypyridin-2-yl)methyl)-4-methylpyrrolidin-3-yl)-7-(tetrahydro-2H-pyran-4-yl)imidazo[5,1-f][1,2,4]triazin-4(3H)-one]",< 1000
5,"C[C@@H]1CN(Cc2cn3ncccc3n2)C[C@H]1c1nn2c(C3CCOCC3)ncc2c(=O)[nH]1 (single isomer, unassigned) [(+)-2-((3,4-trans)-1-(imidazo[1,2-b]pyridazin-2-ylmethyl)-4-methylpyrrolidin-3-yl)-7-(tetrahydro-2H-pyran-4-yl)imidazo[5,1-f][1,2,4]triazin-4(3H)-one]",< 1000
6,"C[C@@H]1CN(Cc2ccc3nccn3n2)C[C@H]1c1nn2c(C3CCOCC3)ncc2c(=O)[nH]1 (single isomer, unassigned) [(+)-2-((3,4-trans)-1-(imidazo[1,2-b]pyridazin-6-ylmethyl)-4-methylpyrrolidin-3-yl)-7-(tetrahydro-2H-pyran-4-yl)imidazo[5,1-f][1,2,4]triazin-4(3H)-one]",< 1000
7,"CCS(=O)(=O)N1CCC(c2ncc3c(=O)[nH]c([C@@H]4CN(Cc5ccccc5)C[C@H]4C)nn23)CC1 (single isomer, unassigned) [(+)-2-((3,4-trans)-1-benzyl-4-methylpyrrolidin-3-yl)-7-(1-(ethylsulfonyl)piperidin-4-yl)imidazo[5,1-f][1,2,4]triazin-4(3H)-one]",< 1000
8,"C[C@@H]1CN(Cc2ccccc2)C[C@H]1c1nn2c(C(C)(C)O)ncc2c(=O)[nH]1 (single isomer, unassigned) [(+)-2-((3,4-trans)-1-benzyl-4-methylpyrrolidin-3-yl)-7-(2-hydroxypropan-2-yl)imidazo[5,1-f][1,2,4]triazin-4(3H)-one]",1000 to 10000
9,"C[C@@H]1CN(Cc2ccccc2)C[C@H]1c1nn2c(C3CCC(F)(F)CC3)ncc2c(=O)[nH]1 (single isomer, unassigned) [(+)-2-((3,4-trans)-1-benzyl-4-methylpyrrolidin-3-yl)-7-(4,4-difluorocyclohexyl)imidazo[5,1-f][1,2,4]triazin-4(3H)-one]",< 1000
10,"Cc1cc(F)ccc1-c1ncc2c(=O)[nH]c([C@@H]3CN(Cc4ccccc4)C[C@H]3C)nn12 (single isomer, unassigned) [(+)-2-((3,4-trans)-1-benzyl-4-methylpyrrolidin-3-yl)-7-(4-fluoro-2-methylphenyl)imidazo[5,1-f][1,2,4]triazin-4(3H)-one]",< 1000
11,"Cc1ccc(Cl)cc1-c1ncc2c(=O)[nH]c([C@@H]3CN(Cc4ccccc4)C[C@H]3C)nn12 (single isomer, unassigned) [(+)-2-((3,4-trans)-1-benzyl-4-methylpyrrolidin-3-yl)-7-(5-chloro-2-methylphenyl)imidazo[5,1-f][1,2,4]triazin-4(3H)-one]",< 1000
12,"C[C@@H]1CN(Cc2ccccc2)C[C@H]1c1nn2c(-c3ccoc3)ncc2c(=O)[nH]1 (single isomer, unassigned) [(+)-2-((3,4-trans)-1-benzyl-4-methylpyrrolidin-3-yl)-7-(furan-3-yl)imidazo[5,1-f][1,2,4]triazin-4(3H)-one]",< 1000
13,"C[C@@H]1CN(Cc2cnccn2)C[C@H]1c1nn2c(C3CCOCC3)ncc2c(=O)[nH]1 (single isomer, unassigned) [(+)-2-((3,4-trans)-4-methyl-1-(pyrazin-2-ylmethyl)pyrrolidin-3-yl)-7-(tetrahydro-2H-pyran-4-yl)imidazo[5,1-f][1,2,4]triazin-4(3H)-one]",< 1000
14,"C[C@@H]1CN(Cc2ccccn2)C[C@H]1c1nn2c(C3CCOCC3)ncc2c(=O)[nH]1 (single isomer, unassigned) [(+)-2-((3,4-trans)-4-methyl-1-(pyridin-2-ylmethyl)pyrrolidin-3-yl)-7-(tetrahydro-2H-pyran-4-yl)imidazo[5,1-f][1,2,4]triazin-4(3H)-one]",< 1000
15,"C[C@@H]1CN(Cc2ncccn2)C[C@H]1c1nn2c(C3CCOCC3)ncc2c(=O)[nH]1 (single isomer, unassigned) [(+)-2-((3,4-trans)-4-methyl-1-(pyrimidin-2-ylmethyl)pyrrolidin-3-yl)-7-(tetrahydro-2H-pyran-4-yl)imidazo[5,1-f][1,2,4]triazin-4(3H)-one]",< 1000
16,"C[C@@H]1CN(Cc2ncc3ccccc3n2)C[C@H]1c1nn2c(C3CCOCC3)ncc2c(=O)[nH]1 (single isomer, unassigned) [(+)-2-((3,4-trans)-4-methyl-1-(quinazolin-2-ylmethyl)pyrrolidin-3-yl)-7-(tetrahydro-2H-pyran-4-yl)imidazo[5,1-f][1,2,4]triazin-4(3H)-one]",< 1000
17,"C[C@@H]1CN(Cc2ccc3ccccc3n2)C[C@H]1c1nn2c(C3CCOCC3)ncc2c(=O)[nH]1 (single isomer, unassigned) [(+)-2-((3,4-trans)-4-methyl-1-(quinolin-2-ylmethyl)pyrrolidin-3-yl)-7-(tetrahydro-2H-pyran-4-yl)imidazo[5,1-f][1,2,4]triazin-4(3H)-one]",< 1000
18,"CCS(=O)(=O)N1CCC(c2ncc3c(=O)[nH]c([C@@H]4CN(Cc5ncccn5)C[C@H]4C)nn23)CC1 (single isomer, unassigned) [(+)-7-(1-(ethylsulfonyl)piperidin-4-yl)-2-((3,4-trans)-4-methyl-1-(pyrimidin-2-ylmethyl)pyrrolidin-3-yl)imidazo[5,1-f][1,2,4]triazin-4(3H)-one]",1000 to 10000
19,"CC(=O)N1CCC(c2ncc3c(=O)[nH]c([C@@H]4CN(Cc5ccccc5)C[C@H]4C)nn23)CC1 (single isomer, unassigned) [(+)-7-(1-acetylpiperidin-4-yl)-2-((3,4-trans)-1-benzyl-4-methylpyrrolidin-3-yl)imidazo[5,1-f][1,2,4]triazin-4(3H)-one]",< 1000
20,"CC(=O)N1CCC(c2ncc3c(=O)[nH]c([C@@H]4CN(Cc5ncccn5)C[C@H]4C)nn23)CC1 (single isomer, unassigned) [(+)-7-(1-acetylpiperidin-4-yl)-2-((3,4-trans)-4-methyl-1-(pyrimidin-2-ylmethyl)pyrrolidin-3-yl)imidazo[5,1-f][1,2,4]triazin-4(3H)-one]",1000 to 10000
21,"C[C@@H]1CN(Cc2ncccn2)C[C@H]1c1nn2c(C3CCC(F)(F)CC3)ncc2c(=O)[nH]1 (single isomer, unassigned) [(+)-7-(4,4-difluorocyclohexyl)-2-((3,4-trans)-4-methyl-1-(pyrimidin-2-ylmethyl)pyrrolidin-3-yl)imidazo[5,1-f][1,2,4]triazin-4(3H)-one]",< 1000
22,"C[C@@H]1CN(Cc2cccc(F)c2)C[C@H]1c1nn2c(C3CCOCC3)ncc2c(=O)[nH]1 (single isomer, unassigned) [(−)-2-((3,4-trans)-1-(3-fluorobenzyl)-4-methylpyrrolidin-3-yl)-7-(tetrahydro-2H-pyran-4-yl)imidazo[5,1-f][1,2,4]triazin-4(3H)-one]",< 1000

# From patent US9540380B2, “Imidazotriazinone compounds” (Ironwood Pharmaceuticals, Inc., priority 2010, dated 2017)
